Results published in patent US9730940B2, “Purine inhibitors of human phosphatidylinositol 3-kinase delta” (priority 2012, dated 2017).

Biological target: PI3K-alpha (Homo sapiens (Human), UniProt P42336)
Test: HTRF PI3K biochemical assay, alpha isoform
Conditions: ratio PI3K-alpha IC50 value/PI3K-delta IC50 value

Chain of PI3K-alpha (P42336 whole entry, looked up, canonical isoform): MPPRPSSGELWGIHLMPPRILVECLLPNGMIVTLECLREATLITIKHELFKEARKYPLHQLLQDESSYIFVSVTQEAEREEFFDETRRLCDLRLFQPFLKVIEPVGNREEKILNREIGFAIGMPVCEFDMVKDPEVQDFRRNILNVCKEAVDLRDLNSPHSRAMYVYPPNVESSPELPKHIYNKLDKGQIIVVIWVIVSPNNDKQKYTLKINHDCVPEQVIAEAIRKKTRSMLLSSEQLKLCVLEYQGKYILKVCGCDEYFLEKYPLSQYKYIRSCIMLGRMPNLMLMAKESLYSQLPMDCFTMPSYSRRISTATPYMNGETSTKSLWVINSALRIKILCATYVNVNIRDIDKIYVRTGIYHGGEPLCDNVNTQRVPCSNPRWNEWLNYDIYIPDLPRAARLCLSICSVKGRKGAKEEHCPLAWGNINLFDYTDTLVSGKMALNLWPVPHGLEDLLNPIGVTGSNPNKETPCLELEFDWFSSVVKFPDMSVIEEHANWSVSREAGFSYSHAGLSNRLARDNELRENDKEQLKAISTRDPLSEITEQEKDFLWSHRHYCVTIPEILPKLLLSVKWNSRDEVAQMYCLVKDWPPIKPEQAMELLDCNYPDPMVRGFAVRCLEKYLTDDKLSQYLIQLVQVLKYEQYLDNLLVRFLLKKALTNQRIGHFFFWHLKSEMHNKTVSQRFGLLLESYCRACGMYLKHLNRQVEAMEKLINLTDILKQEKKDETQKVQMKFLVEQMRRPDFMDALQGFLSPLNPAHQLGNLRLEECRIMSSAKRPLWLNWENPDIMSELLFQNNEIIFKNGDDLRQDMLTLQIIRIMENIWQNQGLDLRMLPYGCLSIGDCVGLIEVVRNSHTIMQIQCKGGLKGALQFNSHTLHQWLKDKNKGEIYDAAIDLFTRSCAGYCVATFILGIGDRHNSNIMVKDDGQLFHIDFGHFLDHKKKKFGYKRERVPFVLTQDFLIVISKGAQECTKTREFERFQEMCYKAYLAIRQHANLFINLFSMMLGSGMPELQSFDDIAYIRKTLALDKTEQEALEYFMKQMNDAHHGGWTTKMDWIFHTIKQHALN
Chain of PI3K-alpha (P27986 whole entry partner, looked up, canonical isoform): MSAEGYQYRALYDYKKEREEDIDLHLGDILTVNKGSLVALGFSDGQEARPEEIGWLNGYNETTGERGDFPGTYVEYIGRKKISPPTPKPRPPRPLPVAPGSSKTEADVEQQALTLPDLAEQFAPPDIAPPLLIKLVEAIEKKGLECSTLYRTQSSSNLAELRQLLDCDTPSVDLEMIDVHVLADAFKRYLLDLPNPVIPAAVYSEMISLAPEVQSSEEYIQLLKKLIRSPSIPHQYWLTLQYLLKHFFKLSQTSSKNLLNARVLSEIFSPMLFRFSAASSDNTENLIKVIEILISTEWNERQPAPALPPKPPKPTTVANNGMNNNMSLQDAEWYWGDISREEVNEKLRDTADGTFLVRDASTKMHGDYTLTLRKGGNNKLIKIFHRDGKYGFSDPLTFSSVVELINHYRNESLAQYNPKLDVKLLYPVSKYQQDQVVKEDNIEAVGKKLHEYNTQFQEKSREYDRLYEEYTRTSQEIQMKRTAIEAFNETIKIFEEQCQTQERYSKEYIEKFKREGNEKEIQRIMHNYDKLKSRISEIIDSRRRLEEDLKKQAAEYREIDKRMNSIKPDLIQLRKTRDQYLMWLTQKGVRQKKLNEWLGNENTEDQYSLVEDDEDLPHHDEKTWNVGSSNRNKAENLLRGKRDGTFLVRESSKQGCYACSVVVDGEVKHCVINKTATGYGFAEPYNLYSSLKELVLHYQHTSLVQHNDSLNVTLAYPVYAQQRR

| Compound | Relative Selectivity versus PI3Kalpha |
| --- | --- |
| CCOC(=O)[C@H](C)NC(=O)N1CC[C@H](Oc2ncnc3c2nc(-c2cnn(CC)c2C)n3C)C1 [Compound 5-6, ethyl N-{[(3S)-3-{[8-(1-ethyl-5-methyl-1H-pyrazol-4-yl)-9-methyl-9H-purin-6-yl]oxy}pyrrolidin-1-yl]carbonyl}alaninate] | 5 |
| CCNC(=O)N1CC[C@H](Oc2ncnc3c2nc(-c2cnn(CC)c2C)n3C)C1 [Compound 5-7, (S)-N-ethyl-3-((8-(1-ethyl-5-methyl-1H-pyrazol-4-yl)-9-methyl-9H-purin-6-yl]oxy}pyrrolidine-1-carboxamide] | >10 |
| CCNC(=O)N1CC[C@H](Oc2ncnc3c2nc(-c2cnc(C)nc2)n3CC)C1 [Compound 5-8, (3S)-N-ethyl-3-{[9-ethyl-8-(2-methylpyrimidin-5-yl)-9H-purin-6-yl]oxy}pyrrolidine-1-carboxamide] | >10 |
| CCN(C)C(=O)N1CC[C@H](Oc2ncnc3c2nc(-c2cnc(C)nc2)n3CC)C1 [Compound 5-9, (3S)-N-ethyl-3-{[9-ethyl-8-(2-methylpyrimidin-5-yl)-9H-purin-6-yl]oxy}-N-methylpyrrolidine-1-carboxamide] | >10 |
| CCn1c(-c2cnc(C)nc2)nc2c(O[C@H]3CCN(C(=O)N(C)C4CC4)C3)ncnc21 [Compound 5-10, (3S)-N-cyclopropyl-3-{[9-ethyl-8-(2-methylpyrimidin-5-yl)-9H-purin-6-yl]oxy}-N-methylpyrrolidine-1-carboxamide] | >10 |
| CCn1c(-c2cnc(C)nc2)nc2c(O[C@H]3CCN(C(=O)N4CCC4)C3)ncnc21 [Compound 5-11, 6-{[(3S)-1-(azetidin-1-ylcarbonyl)pyrrolidin-3-yl]oxy}-9-ethyl-8-(2-methylpyrimidin-5-yl)-9H-purine] | >10 |
| CCn1c(-c2cnc(C)nc2)nc2c(OC3CCN(C(=O)N(C)c4ccccc4)CC3)ncnc21 [Compound 5-12, 4-{[9-ethyl-8-(2-methylpyrimidin-5-yl)-9H-purin-6-yl]oxy}-N-methyl-N-phenylpiperidine-1-carboxamide] | >10 |
| CCn1c(-c2cnc(C)nc2)nc2c(O[C@H]3CCN(C(=O)N4CC(OC)C4)C3)ncnc21 [Compound 5-13, 9-ethyl-6-({(3S)-1-[(3-methoxyazetidin-1-yl)carbonyl]pyrrolidin-3-yl}oxy)-8-(2-methylpyrimidin-5-yl)-9H-purine] | >10 |
| CCn1c(-c2cnc(C)nc2)nc2c(O[C@H]3CCN(C(=O)N4CC(F)(F)C4)C3)ncnc21 [Compound 5-14, 6-{[(3S)-1-[(3,3-difluoroazetidin-1-yl)carbonyl]pyrrolidin-3-yl}oxy)-9-ethyl-8-(2-methylpyrimidin-5-yl)-9H-purine] | >10 |
| CCn1c(-c2cnc(C)nc2)nc2c(O[C@H]3CCN(C(=O)N(C)c4ccccc4)C3)ncnc21 [Compound 5-17, (3S)-3-{[9-ethyl-8-(2-methylpyrimidin-5-yl)-9H-purin-6-yl]oxy}-N-methyl-N-phenylpyrrolidine-1-carboxamide] | >10 |
| CCn1c(-c2cnc(C)nc2)nc2c(O[C@H]3CCN(C(=O)N4CCC(CO)C4)C3)ncnc21 (stereo partly drawn) [Compound 5-18, (1-{[(3S)-3-{[9-ethyl-8-(2-methylpyrimidin-5-yl)-9H-purin-6-yl]oxy}pyrrolidin-1-yl]carbonyl}pyrrolidin-3-yl)methanol] | >10 |
| CCn1c(-c2cnc(C)nc2)nc2c(O[C@H]3CCN(C(=O)N4CCC(C)(C)C4)C3)ncnc21 [Compound 5-19, 6-({(3S)-1-[(3,3-dimethylpyrrolidin-1-yl)carbonyl]pyrrolidin-3-yl}oxy)-9-ethyl-8-(2-methylpyrimidin-5-yl)-9H-purine] | >10 |
| CCn1c(-c2cnc(C)nc2)nc2c(O[C@H]3CCN(C(=O)N4CCC(C)(O)C4)C3)ncnc21 (stereo partly drawn) [Compound 5-20, 1-{[(3S)-3-{[9-ethyl-8-(2-methylpyrimidin-5-yl)-9H-purin-6-yl]oxy}pyrrolidin-1-yl]carbonyl}-3-methylpyrrolidin-3-ol] | >10 |
| CCn1c(-c2cnc(C)nc2)nc2c(O[C@H]3CCN(C(=O)N4CC(C)(OC)C4)C3)ncnc21 [Compound 5-21, 9-ethyl-6-({(3S)-1-[(3-methoxy-3-methylazetidin-1-yl)carbonyl]pyrrolidin-3-yl}oxy)-8-(2-methylpyrimidin-5-yl)-9H-purine] | >10 |
| CCn1c(-c2cnc(C)nc2)nc2c(O[C@H]3CCN(C(=O)N4CC5CC5C4)C3)ncnc21 (stereo partly drawn) [Compound 5-22, 6-{[(3S)-1-(3-azabicyclo[3.1.0]hex-3-ylcarbonyl)pyrrolidin-3-yl]oxy}-9-ethyl-8-(2-methylpyrimidin-5-yl)-9H-purine] | >10 |
| CCn1c(-c2cnc(C)nc2)nc2c(O[C@H]3CCN(C(=O)N4CCCCC4)C3)ncnc21 [Compound 5-23, 9-ethyl-8-(2-methylpyrimidin-5-yl)-6-{[(3S)-1-(piperidin-1-ylcarbonyl)pyrrolidin-3-yl]oxy}-9H-purine] | >10 |

| Compound | Relative Selectivity versus PI3Kalpha |
| --- | --- |
| CCn1c(-c2cnc(C)nc2)nc2c(O[C@H]3CCN(C(=O)N4C5CCC4CC5)C3)ncnc21 [Compound 5-24] | >10 |
| CCn1c(-c2cnc(C)nc2)nc2c(O[C@H]3CCN(C(=O)N4CC(O)C4)C3)ncnc21 [Compound 5-25, 1-{[(3S)-3-{[9-ethyl-8-(2-methylpyrimidin-5-yl)-9H-purin-6-yl]oxy}pyrrolidin-1-yl]carbonyl}azetidin-3-ol] | >10 |
| CCn1c(-c2cnc(C)nc2)nc2c(O[C@H]3CCN(C(=O)N4CCC(F)(F)C4)C3)ncnc21 [Compound 5-26, 6-({(3S)-1-[(3,3-difluoropyrrolidin-1-yl)carbonyl]pyrrolidin-3-yl}oxy)-9-ethyl-8-(2-methylpyrimidin-5-yl)-9H-purine] | >10 |
| CCn1c(-c2cnc(C)nc2)nc2c(O[C@H]3CCN(C(=O)N4CC(F)C4)C3)ncnc21 [Compound 5-27, 9-ethyl-6-({(3S)-1-[(3-fluoroazetidin-1-yl)carbonyl]pyrrolidin-3-yl}oxy)-8-(2-methylpyrimidin-5-yl)-9H-purine] | >10 |
| CCn1c(-c2ccc(C(F)(F)F)nc2)nc2c(O[C@H]3CCN(C(=O)N4CC(OC)C4)C3)ncnc21 [Compound 5-28, (S)-(3-((9-ethyl-8-(6-(trifluoromethyl)pyridin-3-yl)-9H-purin-6-yl)oxy)pyrrolidin-1-yl)(3-methoxyazetidin-1-yl)methanone] | >10 |
| CCn1ncc(-c2nc3c(O[C@H]4CCN(C(C)c5ccccc5)C4)ncnc3n2C)c1C (stereo partly drawn) [Compound 6-1, 8-(1-ethyl-5-methyl-1H-pyrazol-4-yl)-9-methyl-6-{[(3S)-1-(1-phenylethyl)pyrrolidin-3-yl]oxy}-9H-purine] | >10 |
| CCn1ncc(-c2nc3c(O[C@H]4CCN(CC5CCCCC5)C4)ncnc3n2C)c1C [Compound 6-2, 6-{[(3S)-1-(cyclohexylmethyl)pyrrolidin-3-yl]oxy}-8-(1-ethyl-5-methyl-1H-pyrazol-4-yl)-9-methyl-9H-purine] | >10 |
| CCCN1CC[C@H](Oc2ncnc3c2nc(-c2cnn(CC)c2C)n3C)C1 [Compound 6-5, (S)-8-(1-ethyl-5-methyl-1H-pyrazol-4-yl)-9-methyl-6-((1-propylpyrrolidin-3-yl)oxy)-9H-purine] | >10 |
| CCn1c(-c2cnc(C)nc2)nc2c(OC3CN(Cc4ccccc4)CC3(C)C)ncnc21 (centres unmarked) [Compound 6-6, 6-((1-benzyl-4,4-dimethylpyrrolidin-3-yl)oxy)-9-ethyl-8-(2-methylpyrimidin-5-yl)-9H-purine] | >10 |
| CCn1ncc(-c2nc3c(O[C@H]4CCN(c5ncccn5)C4)ncnc3n2C)c1C [Compound 7-1, 8-(1-ethyl-5-methyl-1H-pyrazol-4-yl)-9-methyl-6-{[(3S)-1-pyrimidin-2-ylpyrrolidin-3-yl]oxy}-9H-purine] | >10 |
| CCn1ncc(-c2nc3c(O[C@H]4CCN(c5ncnc6sc(C)cc56)C4)ncnc3n2C)c1C [Compound 7-2, 8-(1-ethyl-5-methyl-1H-pyrazol-4-yl)-9-methyl-6-{[(3S)-1-(6-methylthieno[2,3-d]pyrimidin-4-yl)pyrrolidin-3-yl]oxy}-9H-purine] | >10 |
| CCn1ncc(-c2nc3c(O[C@H]4CCN(c5nccc6sccc56)C4)ncnc3n2C)c1C [Compound 7-3, 8-(1-ethyl-5-methyl-1H-pyrazol-4-yl)-9-methyl-6-{[(3S)-1-thieno[3,2-c]pyridin-4-ylpyrrolidin-3-yl]oxy}-9H-purine] | >10 |
| CCn1ncc(-c2nc3c(O[C@H]4CCN(c5ncnc6ccsc56)C4)ncnc3n2C)c1C [Compound 7-4, 8-(1-ethyl-5-methyl-1H-pyrazol-4-yl)-9-methyl-6-{[(3S)-1-thieno[3,2-d]pyrimidin-4-ylpyrrolidin-3-yl]oxy}-9H-purine] | >10 |
| CCn1ncc(-c2nc3c(O[C@H]4CCN(c5cc(C(F)(F)F)ccn5)C4)ncnc3n2C)c1C [Compound 7-5, 8-(1-ethyl-5-methyl-1H-pyrazol-4-yl)-9-methyl-6-({(3S)-1-[4-(trifluoromethyl)pyridin-2-yl]pyrrolidin-3-yl}oxy)-9H-purine] | >10 |
| CCn1ncc(-c2nc3c(O[C@H]4CCN(c5nccn6cnnc56)C4)ncnc3n2C)c1C [Compound 7-6, 8-[(3S)-3-{[8-(1-ethyl-5-methyl-1H-pyrazol-4-yl)-9-methyl-9H-purin-6-yl]oxy}pyrrolidin-1-yl][1,2,4]triazolo[4,3-a]pyrazine] | >10 |
| CCn1ncc(-c2nc3c(O[C@H]4CCN(c5ccccn5)C4)ncnc3n2C)c1C [Compound 7-7, 8-(1-ethyl-5-methyl-1H-pyrazol-4-yl)-9-methyl-6-{[(3S)-1-pyridin-2-ylpyrrolidin-3-yl]oxy}-9H-purine] | >10 |
